From ChEMBL document CHEMBL3244263, “Derivatives of 1,2,3,11a-tetrahydro-5H-pyrrolo[2,1-c][1,4]benzodiazepine-5,11(10H)-dione as anxiolytic agents” (J Med Chem, 1978)
The source made the active and inactive calls. The rule behind the calls is not given here.

Experiments:
Rattus norvegicus [1] = assay: Anxiolytic activity in po dosed rat assessed as protection against pentylenetetrazole-induced seizures administered in 2% starch; type: functional
Rattus norvegicus [2] = organism: Rattus norvegicus; assay: Drug metabolism in rat treated with 10-methyl-2,3-dihydro-1H-benzo[e]pyrrolo[1,2-a][1,4]diazepine-5,11(10H,11aH)-dione; type: ADME, organism-based; details: in vivo
Rattus norvegicus [3] = organism: Rattus norvegicus; assay: Drug metabolism in rat assessed as 2,3-dihydro-1H-benzo[e]pyrrolo[1,2-a][1,4]diazepine-5,11(10H,11aH)-dione formation; type: ADME, organism-based; details: in vivo
Rattus norvegicus [4] = organism: Rattus norvegicus; assay: Drug metabolism in rat assessed as monohydroxylated product formation; type: ADME, organism-based; details: in vivo
Rattus norvegicus [5] = organism: Rattus norvegicus; assay: Drug metabolism in rat assessed as 3,11a-dihydroxy-10-methyl-2,3-dihydro-1H-benzo[e]pyrrolo[1,2-a][1,4]diazepine-5,11(10H,11aH)-dione formation by GC-MS/NMR analysis; type: ADME, organism-based; details: in vivo
Rattus norvegicus [6] = organism: Rattus norvegicus; assay: Drug metabolism in rat assessed as aliphatic hydroxylated product formation; type: ADME, organism-based; details: in vivo
Rattus norvegicus [7] = organism: Rattus norvegicus; assay: Drug metabolism in rat assessed as dihydroxylated product formation; type: ADME, organism-based; details: in vivo
Rattus norvegicus [8] = organism: Rattus norvegicus; assay: Toxicity in rat assessed as depression; type: organism-based; details: in vivo
Squirrel monkey = assay: Anxiolytic activity in squirrel monkey by conflict responding test; type: functional, organism-based; details: Saimiri sciureus
Mus musculus = organism: Mus musculus; assay: Anxiolytic activity in mouse assessed as suppression of pentylenetetrazole-induced convulsion; type: functional, organism-based
Rattus norvegicus [9] = organism: Rattus norvegicus; assay: Anxiolytic activity in thirsty rat by increased conflict responding test; type: functional, organism-based
Canis familiaris = organism: Canis familiaris; assay: Anxiolytic activity in dog assessed as suppression of pentylenetetrazole-induced convulsion; type: functional, organism-based; details: Canis lupus familiaris
Homo sapiens = organism: Homo sapiens; assay: Anxiolytic activity in human; type: functional, organism-based
[10] = Rattus norvegicus, po, read-out: ED50

Work on `O=C1Nc2ccc(F)cc2C(=O)N2CCCC12` (configuration not stated) yielded an ED50 (Rattus norvegicus [1]; [10]) of 23 mg/kg.

`CN1C(=O)C2(O)CCC(O)N2C(=O)c2ccccc21` (configuration not stated) was tested, and the Drug metabolism (Rattus norvegicus [2]) was “metabolite_detected”.

`CN1C(=O)C2CCCN2C(=O)c2cc(F)ccc21` (single isomer, unassigned; (+)) showed an ED50 (Rattus norvegicus [1]; [10]) of 3.9 mg/kg.

In the case of `CN1C(=O)C2CCCN2C(=O)c2ccccc21` (single isomer, unassigned; (+)) [listing 1 of 2 here], the Drug metabolism (Rattus norvegicus [3]) is reported as “metabolite_detected”, the Drug metabolism (Rattus norvegicus [4]) is reported as “metabolite_detected” and the ED50 (Rattus norvegicus [1]) is reported as 9.9 mg/kg. For the same compound, the Drug metabolism (Rattus norvegicus [5]) was “metabolite_detected”, the Drug metabolism (Rattus norvegicus [6]) was “metabolite_detected” and the Drug metabolism (Rattus norvegicus [7]) was “metabolite_detected”. For the same compound, the Activity (Rattus norvegicus [8]) was “Non-toxic”.

Work on `O=C1Nc2ccccc2C(=O)N2CCCC12` (single isomer, unassigned; (+)) yielded an ED50 (Rattus norvegicus [1]; [10]) of 35 mg/kg.

`CN1C(=O)C2CCCN2C(=O)c2ccccc21` (single isomer, unassigned; (+)) [listing 2 of 2 here] was tested, and the Activity (Squirrel monkey) was “Active”, the Activity (Mus musculus) was “Active” and the Activity (Rattus norvegicus [9]) was “Active”. For the same compound, the Activity (Canis familiaris) was “Active” and the Activity (Homo sapiens) was “inactive”.

`CN1C(=O)C2CCCN2C(=O)c2ccccc21` (single isomer, unassigned; (-)) gave an ED50 (Rattus norvegicus [1]) of over 200 mg/kg.

`CN1C(=O)C2CCCN2C(=O)c2ccccc21` (stereo in doubt; 2) showed an ED50 (Rattus norvegicus [1]) of 20.2 mg/kg.

`CNC1=Nc2ccc(Cl)cc2C(c2ccccc2)=[N+]([O-])C1` [CHLORDIAZEPOXIDE] was tested, and the ED50 (Rattus norvegicus [1]; [10]) was 2.5 mg/kg and the Activity (Rattus norvegicus [8]) was “Toxic”.

With `CN1C(=O)CN=C(c2ccccc2)c2cc(Cl)ccc21` [DIAZEPAM] the Activity (Rattus norvegicus [8]) was “Toxic”.

For `CCCC(C)(COC(N)=O)COC(N)=O` [MEPROBAMATE], the ED50 (Rattus norvegicus [1]; [10]) was 21.5 mg/kg.
